One assay deals with T1, RDLA2'V (Drosophila melanogaster, UniProt P25123, A301V).
T1 sequence (P25123 45-606 A301V): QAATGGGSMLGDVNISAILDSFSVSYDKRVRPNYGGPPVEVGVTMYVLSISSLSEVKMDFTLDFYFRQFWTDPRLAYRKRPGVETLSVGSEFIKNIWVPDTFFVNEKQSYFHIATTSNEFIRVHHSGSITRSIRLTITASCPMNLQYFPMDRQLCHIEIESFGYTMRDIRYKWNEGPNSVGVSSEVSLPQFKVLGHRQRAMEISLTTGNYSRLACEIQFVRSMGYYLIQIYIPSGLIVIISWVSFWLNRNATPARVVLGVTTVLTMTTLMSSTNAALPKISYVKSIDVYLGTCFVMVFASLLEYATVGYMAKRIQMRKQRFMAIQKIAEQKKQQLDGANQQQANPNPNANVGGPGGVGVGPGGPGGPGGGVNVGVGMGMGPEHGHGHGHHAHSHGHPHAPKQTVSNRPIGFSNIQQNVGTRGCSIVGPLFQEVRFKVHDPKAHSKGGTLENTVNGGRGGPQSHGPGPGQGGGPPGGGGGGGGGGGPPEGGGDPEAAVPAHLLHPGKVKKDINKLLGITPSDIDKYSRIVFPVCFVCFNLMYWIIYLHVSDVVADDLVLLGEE
The assay can be described thus: cell-based. In kind it is cell-based.

In another assay the target is T2, RDLT6'V (Drosophila melanogaster, UniProt P25123, T305V).
T2 sequence (P25123 45-606 T305V): T1 sequence (P25123 45-606 A301V) with V257A, T261V
Nature of the assay: Two-electrode voltage clamp of RDLT6'V mutant receptors in Xenopus oocytes. It is filed as cell-based.

Residue numbers refer to the chain shown, from its start. pIC50: −log10 of the molar value. Where only a bound is given, the exact number is not on record here.

For the molecule `CC(C)(C)[C@]1(O)CC2OC(=O)CC23C(=O)OC2OC(=O)[C@H](O)C231` (stereo partly shown) [BB, bilobalide], the pIC50 on RDLA2'V was 3.65; at RDLT6'V, under 3.00.

For `C[C@@H]1C(=O)O[C@H]2C[C@@]34[C@H]5C[C@@H](C(C)(C)C)[C@]36[C@@H](OC(=O)[C@@H]6O)O[C@@]4(C(=O)O5)[C@]21O` [GA, ginkgolide A], the pIC50 is 3.44 against RDLA2'V and under 3.00 at RDLT6'V.

These data come from paper PMC3336786 (The FASEB Journal, 2012).
